Experimental findings from EP1382597A2, “Steroid receptor modulator compounds and methods” (LIGAND PHARMACEUTICALS, INC., priority 1994, dated 1996) are described below.

Test [1] deals with T1, human PR-B (Homo sapiens, UniProt P06401).
T1 construct: expressed in transfected cells; host or cells: CV-1 cells (African green monkey kidney fibroblasts), transient transfection
T1 sequence (P06401 1-933): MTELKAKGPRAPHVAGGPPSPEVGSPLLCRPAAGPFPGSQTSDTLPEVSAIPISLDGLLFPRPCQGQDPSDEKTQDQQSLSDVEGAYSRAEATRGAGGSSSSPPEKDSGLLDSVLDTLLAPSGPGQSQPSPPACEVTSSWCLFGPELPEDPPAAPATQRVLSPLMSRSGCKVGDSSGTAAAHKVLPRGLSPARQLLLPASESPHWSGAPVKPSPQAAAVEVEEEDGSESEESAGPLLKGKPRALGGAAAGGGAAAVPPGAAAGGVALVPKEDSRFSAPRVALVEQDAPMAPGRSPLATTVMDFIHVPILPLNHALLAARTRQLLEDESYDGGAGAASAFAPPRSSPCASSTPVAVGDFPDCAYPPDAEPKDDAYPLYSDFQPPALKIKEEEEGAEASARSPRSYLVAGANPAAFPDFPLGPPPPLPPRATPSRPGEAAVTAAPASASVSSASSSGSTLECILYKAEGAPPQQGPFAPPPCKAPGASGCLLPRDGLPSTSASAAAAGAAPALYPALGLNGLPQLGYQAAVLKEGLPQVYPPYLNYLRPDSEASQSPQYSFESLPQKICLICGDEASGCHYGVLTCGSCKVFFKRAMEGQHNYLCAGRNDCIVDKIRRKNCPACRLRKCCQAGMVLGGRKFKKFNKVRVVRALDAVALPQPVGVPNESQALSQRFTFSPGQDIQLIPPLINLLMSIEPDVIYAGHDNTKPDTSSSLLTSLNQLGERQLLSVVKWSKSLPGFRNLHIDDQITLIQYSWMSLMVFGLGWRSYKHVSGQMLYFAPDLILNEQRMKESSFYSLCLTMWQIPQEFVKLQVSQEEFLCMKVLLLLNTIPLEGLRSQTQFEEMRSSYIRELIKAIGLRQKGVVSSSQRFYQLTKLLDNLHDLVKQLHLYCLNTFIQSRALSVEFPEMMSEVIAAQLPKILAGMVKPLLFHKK
The experiment in a line: Co-transfection assay, PR agonist activity.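 For all read-outs here: CV-1 cells (African green monkey kidney) co-transfected with receptor plasmid and hormone-responsive firefly luciferase reporter, agonism read as compound-dependent rise in luciferase signal.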 Format: cell-based. Particulars: for Emax: CV-1, read-out: PR Agonist CV-1 Cells Efficacy (%).

Test [2] deals with T1, human PR-B. Kind of test: Co-transfection assay, PR antagonist activity.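 For all read-outs here: monkey kidney fibroblasts co-transfected with receptor expression plasmid and hormone-responsive luciferase reporter, antagonism read as reduced luciferase signal.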 Format: cell-based. Particulars: for Emax: CV-1, read-out: PR Antagonist CV-1 Cells Efficacy (%).

SMILES strings stand for the structures.

Regarding `CC1=CC(C)(C)Nc2ccc3c(c21)/C(=C/c1ccccc1F)Oc1ccccc1-3` [Compound 228, (Z)-5-(2-Fluorobenzylidene)-1,2-dihydro-2,2,4-trimethyl-5H-chromeno[3,4-f]quinoline], the Emax at human PR-B [1] is 114%; at human PR-B [2] it was less than 20%.

Take `CC1(C)Nc2ccc3c(c2C(=O)C1(C)C)C(c1ccc(Cl)cc1)Oc1ccccc1-3` (racemic) [Compound 379, (R/S)-5-(4-Chlorophenyl)-1,2,3,4-tetrahydro-2,2,3,3-tetramethyl-5H-chromeno[3,4-f]-4-quinolinone]: the Emax at human PR-B [1] was less than 20%; on human PR-B [2], 87%.

Regarding `CC1=CC(C)(C)Nc2c(F)cc(-c3cccc([N+](=O)[O-])c3)cc21` [Compound 291, 8-Fluoro-1,2-dihydro-2,2,4-trimethyl-6-(3-nitrophenyl)quinoline], the Emax on human PR-B [1] was less than 20%; at human PR-B [2], 79%.

On to `CCCCC1Oc2ccccc2-c2ccc3c(c21)C(C)C(O)(CCCC)C(C)(C)N3` (racemic) [Compound 385, (R/S)-3,5-Dibutyl-1,2,3,4-tetrahydro-3-hydroxy-2,2,4-trimethyl-5H-chromeno[3,4-f]quinoline], for which the Emax on human PR-B [1] is 27%; at human PR-B [2], 45%.

With `CC1=CC(C)(C)Nc2ccc3c(c21)COc1c(Cl)cccc1-3` [Compound 331, (R/S)-7-Chloro-1,2-dihydro-2,2,4-trimethyl-5H-chromeno[3,4-f]quinoline], the figures for the Emax on human PR-B [1] and on human PR-B [2] were less than 20% and 88%, respectively.

For the compound `CC1=CC(C)(C)Nc2ccc(-c3nn(C)cc3Br)cc21` [Compound 104, 6-(4-Bromo-1-methylpyrazol-3-yl)-1,2-dihydro-2,2,4-trimethylquinoline], the Emax was 39% at human PR-B [1] and 71% on human PR-B [2].

As for `CC1(C)C=Cc2c(ccc3c2/C(=C/c2ccccc2)Oc2ccc(Cl)cc2-3)N1` [Compound 368, (Z)-5-Benzylidene-9-chloro-1,2-dihydro-2,2-dimethyl-5H-chromeno[3,4-f]quinoline], the Emax on human PR-B [1] was 183%; on human PR-B [2] it was less than 20%.

For `CC1C(=O)C(C)(C)Nc2ccc(-c3cc(F)cc(C#N)c3)cc21` (stereo not drawn) [Compound 286, 6-(3-Cyano-5-fluorophenyl)-1,2-dihydro-2,2,4-trimethyl-3-quinolone], the Emax is less than 20% at human PR-B [1] and 84% at human PR-B [2].

Consider `CC1=CC(C)(C)Nc2ccc3c(c21)/C(=C/c1ccccc1C)Oc1ccc(F)cc1-3` [Compound 374, (Z)-9-Fluoro-1,2-dihydro-2,2,4-trimethyl-5-(2-methylbenzylidene)-5H-chromeno[3,4-f]quinoline], for which the results for the Emax at human PR-B [1] and at human PR-B [2] were 231% and less than 20%, respectively.

Regarding `CC(=O)[C@H]1CC[C@H]2[C@@H]3CCC4=CC(=O)CC[C@]4(C)[C@H]3CC[C@]12C` [Prog, progesterone, reference compound], the Emax at human PR-B [1] is 100%; at human PR-B [2] it was less than 20%.

Take `CC1=CC(C)(C)Nc2ccc3c(c21)C(C)Oc1ccc(Cl)cc1-3` (racemic) [Compound 332, (R/S)-9-Chloro-1,2-dihydro-2,2,4,5-tetramethyl-5H-chromeno[3,4-f]quinoline]: the Emax is 138% at human PR-B [1] and less than 20% at human PR-B [2].

Take `CC1=CC(C)(C)Nc2ccc3c(c21)/C(=C/c1ccc(F)cc1)Oc1ccccc1-3` [Compound 221, (Z)-5-(4-Fluorobenzylidene)-1,2-dihydro-2,2,4-trimethyl-5H-chromeno[3,4-f]quinoline]: the Emax on human PR-B [1] is 105%; at human PR-B [2] it was less than 20%.

Consider `CC1(C)C=Cc2c(ccc3c2c(=O)oc2ccc(Cl)cc23)N1` [Compound 313, 9-Chloro-1,2-dihydro-2,2-dimethyl-5-coumarino[3,4-f]quinoline], for which the “PR Agonist CV-1 Cells Efficacy (%)” value on human PR-B [1] (CV-1 cells, percent maximal response relative to reference agonist progesterone) turned out to be 26%. On human PR-B [2] (CV-1 cells, percent maximal inhibition, progesterone at its EC50), the “PR Antagonist CV-1 Cells Efficacy (%)” value was determined as 94%.

For `CCCO[C@@H]1[C@@H](C)c2c(ccc3c2[C@H](c2ccc(Cl)cc2)Oc2ccccc2-3)NC1(C)C` (relative stereo) [Compound 400, (R/S-3l,4u,5u)-5-(4-Chlorophenyl)-1,2,3,4-tetrahydro-3-propyloxy-2,2,4-trimethyl-5H-chromeno[3,4-f]quinoline], the Emax on human PR-B [1] was less than 20%; at human PR-B [2], 68%.

As to `CC1=CC(C)(C)Nc2ccc3c(c21)/C(=C/c1ccccc1)Oc1ccccc1-3` [Compound 220, (Z)-5-Benzylidene-1,2-dihydro-2,2,4-trimethyl-5H-chromeno[3,4-f]quinoline], the Emax was 147% on human PR-B [1] and less than 20% on human PR-B [2].

As to `CC1=CC(C)(C)Nc2ccc(-c3csc(C#N)c3)cc21` [Compound 452, 6-(5-Cyano-3-thienyl)-1,2-dihydro-2,2,4-trimethylquinoline], the values for the Emax on human PR-B [1] and on human PR-B [2] were 119% and 70%, respectively.

On to `CC1=CC(C)(C)Nc2ccc(-n3cnc(Cl)c3Cl)cc21` [Compound 103, 6-(4,5-Dichloroimidazol-1-yl)-1,2-dihydro-2,2,4-trimethylquinoline], for which the Emax at human PR-B [1] was less than 20%; at human PR-B [2], 91%.

Take `CC1=CC(C)(C)Nc2ccc(-c3cccc([N+](=O)[O-])c3)c(Cl)c21` [Compound 310, 5-Chloro-1,2-dihydro-2,2,4-trimethyl-6-(3-nitrophenyl)quinoline]: the results for the Emax at human PR-B [1] and at human PR-B [2] were less than 20% and 70%, respectively.

As for `CC1=CC(C)(C)Nc2cc(C)c3c(c21)/C(=C/c1ccccc1)Oc1ccc(F)cc1-3` [Compound 377, (Z)-5-Benzylidene-9-fluoro-1,2-dihydro-2,2,4,11-tetramethyl-5H-chromeno[3,4-f]quinoline], the Emax on human PR-B [1] was 101%; at human PR-B [2] it was less than 20%.

On to `CC1=CC(C)(C)Nc2ccc(-c3cccc(Cl)c3Cl)cc21` [Compound 109, 6-(2,3-Dichlorophenyl)-1,2-dihydro-2,2,4-trimethylquinoline], for which the Emax at human PR-B [1] was less than 20%; on human PR-B [2], 87%.

In the case of `CC1CC(C)(C)Nc2ccc(-c3cc(F)cc(C#N)c3)cc21` (racemic) [Compound 455, (R/S)-6-(3-Cyano-5-fluorophenyl)-1,2,3,4-Tetrahydro-2,2,4-trimethylquinoline], the Emax at human PR-B [1] is less than 20%; on human PR-B [2], 76%.

Consider `CC1=CC(C)(C)Nc2ccc(-c3cc(F)cc(C#N)c3)cc21` [Compound 271, 6-(3-Cyano-5-fluorophenyl)-1,2-dihydro-2,2,4-trimethylquinoline], for which, on human PR-B [1] (cv-1 cells), the “PR Agonist CV-1 Cells Efficacy (%)” value is “na (key: na = not active (i.e. efficacy of <20 and potency of >10,000))”.

With `CC1C(=O)C(C)(C)Nc2ccc3c(c21)/C(=C/c1cccc(F)c1)Oc1ccccc1-3` (racemic) [Compound 389, (Z)-(R/S)-5-(3-Fluorobenzylidene)-1,2,3,4-tetrahydro-2,2,4-trimethyl-5H-chromeno[3,4-f]-3-quinolinone], the Emax at human PR-B [1] was 133%; at human PR-B [2], less than 20%.
